Test results from US12522623B2, “Small molecule STAT protein degraders” (THE REGENTS OF THE UNIVERSITY OF MICHIGAN, priority 2020, dated 2026).

Assays:
STAT3 = molecular target: T1, STAT3 (Homo sapiens, UniProt P40763); test: Fluorescent immunoblotting of STAT3 protein in MOLM-16 cells (estimated DC50); type: cell-based; conditions: MOLM-16, 4 h
T1 construct: endogenous in cells; host or cells: MOLM-16 (acute leukemia cells)
Method: In vitro cultured cells or xenograft tumors were lysed 1×Cell Lysis Buffer (Cell Signaling Technology, #9803), resolved by SDS-PAGE NuPAGE gel (Thermo Fisher Scientific), and transferred to a PVDF membrane (Bio Rad). For chemiluminescence immunoblotting, membranes were blocked for 1 h using 5% Blotting-Grade Blocker (#1706404, Bio Rad) in 1×Tris-buffered saline with Tween 20 (TBST, Pierce). Antibodies used were: rabbit mAbs for STAT3 (Cell Signaling Technology, #4368, #12640) and p-STAT3 (Y705) (Cell Signaling Technology, #9245, #52075). HRP conjugated goat anti-rabbit IgG (H+L) (#A27036) secondary antibodies was from Thermo Fisher Scientific. GAPDH (Santa Cruz Technology, sc-47724HRP) and actin (Santa Cruz Technology, sc-8432HRP, sc-47778HRP) were loading controls. For fluorescent immunoblotting, membranes were blocked using Odyssey TBS Blocker Buffer (LI-COR). IRDye 680RD and 800CW Dye-labeled secondary antibodies (LI-COR) were used. The washed membranes were scanned using Odyssey CLx imager (LI-COR). The intensity of Western blot signaling was quantitated using the Odyssey software or Image Studio V5.2 (LI-COR).

MOLM-16 cells = test: Cell growth inhibition, 4-day proliferation assay (CellTiter-Glo); type: cell-based; conditions: MOLM16, 96 h; MOLM-16, 4 days
Method: The effect of representative Compounds of the Disclosure on cell viability was determined in a 4-day proliferation assay. Cells were maintained in the appropriate culture medium at 37° C. and an atmosphere of 5% CO2. All the cell lines were used within three months of thawing fresh vials. Cells were seeded in 384-well white plates (Corning Costar) at a density of 2,000 cells/well in 25 μl of culture medium. Compounds were serially diluted in the appropriate medium, and 25 μl of the diluted compounds were added to the cells. After the addition of compounds, the cells were incubated at 37° C. in an atmosphere of 5% CO2 for 4 days. Cell viability was determined using the CellTiter-Glo® Luminescent Cell Viability Assay Kit (Promega, Madison, WI) according to the manufacturers' instructions. Essentially, 50 μl of CellTiter-Glo® Reagent was added to each well, and then the plates were incubated at room temperature for 20 minutes. The luminescent signal was measured using a Tecan multimode microplate reader (Tecan, Morrisville, NC). The readings were normalized to the DMSO-treated cells and the IC50 was calculated by nonlinear regression (four parameters sigmoid fitted with variable slope, least squares fit, and no constraint) analysis using the GraphPad Prism software.

T1 sequence (P40763 whole entry): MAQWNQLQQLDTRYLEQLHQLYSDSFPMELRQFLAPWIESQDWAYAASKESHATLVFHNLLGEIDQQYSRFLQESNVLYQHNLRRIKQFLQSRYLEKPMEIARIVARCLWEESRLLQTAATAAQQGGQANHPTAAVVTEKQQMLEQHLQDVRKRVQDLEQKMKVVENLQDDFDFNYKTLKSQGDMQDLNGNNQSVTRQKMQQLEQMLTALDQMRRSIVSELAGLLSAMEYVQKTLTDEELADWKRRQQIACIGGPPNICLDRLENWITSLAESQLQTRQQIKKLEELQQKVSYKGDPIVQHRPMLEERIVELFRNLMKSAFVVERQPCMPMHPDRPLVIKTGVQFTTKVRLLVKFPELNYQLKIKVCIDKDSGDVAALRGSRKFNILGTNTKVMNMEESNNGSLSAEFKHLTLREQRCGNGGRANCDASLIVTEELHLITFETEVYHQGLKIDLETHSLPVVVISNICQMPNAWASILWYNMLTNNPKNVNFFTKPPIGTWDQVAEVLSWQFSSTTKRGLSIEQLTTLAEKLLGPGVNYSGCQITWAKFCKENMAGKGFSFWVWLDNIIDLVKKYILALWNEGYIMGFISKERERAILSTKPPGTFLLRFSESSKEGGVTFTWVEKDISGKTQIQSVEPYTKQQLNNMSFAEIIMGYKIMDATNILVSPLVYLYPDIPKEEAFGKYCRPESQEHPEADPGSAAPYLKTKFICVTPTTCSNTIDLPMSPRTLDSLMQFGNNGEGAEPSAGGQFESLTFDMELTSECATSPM

Compound | DC50 (STAT3) [nM] | IC50 (MOLM-16 cells) [nM]
NC(=O)CC[C@H](NC(=O)[C@@H]1CC[C@@H]2CCN(C(=O)CCCCCC#Cc3cccc4c3CN(C3CCC(=O)NC3=O)C4=O)C[C@H](NC(=O)c3cc4cc(C(F)(F)P(=O)(O)O)ccc4s3)C(=O)N21)c1nc(-c2ccc(Cl)cc2)cs1 (stereo partly drawn) [Cpd. No. 13, ((2-(((5S,8S,10aR)-8-(((S)-4-amino-1-(4-(4-chlorophenyl)thiazol-2-yl)-4-oxobutyl)carbamoyl)-3-(8-(2-(2,6-dioxopiperidin-3-yl)-1-oxoisoindolin-4-yl)oct-7-ynoyl)-6-oxodecahydropyrrolo[1,2-a][1,5]diazocin-5-yl)carbamoyl)benzo[b]thiophen-5-yl)difluoromethyl)phosphonic acid] | 100 | 
NC(=O)CC[C@H](NC(=O)[C@@H]1CC[C@@H]2CCN(C(=O)CCCCCC#Cc3cccc4c3CN(C3CCC(=O)NC3=O)C4=O)C[C@H](NC(=O)c3cc4cc(C(F)(F)P(=O)(O)O)ccc4s3)C(=O)N21)c1ncc(Cc2ccccc2)s1 (stereo partly drawn) [Cpd. No. 5, ((2-(((5S,8S,10aR)-8-(((S)-4-amino-1-(5-benzylthiazol-2-yl)-4-oxobutyl)carbamoyl)-3-(8-(2-(2,6-dioxopiperidin-3-yl)-1-oxoisoindolin-4-yl)oct-7-ynoyl)-6-oxodecahydropyrrolo[1,2-a][1,5]diazocin-5-yl)carbamoyl)benzo[b]thiophen-5-yl)difluoromethyl)phosphonic acid] | 100 | 49
CC(C)(C)c1cnc([C@H](CCC(N)=O)NC(=O)[C@@H]2CC[C@@H]3CCN(C(=O)CCCCCC#Cc4cccc5c4CN(C4CCC(=O)NC4=O)C5=O)C[C@H](NC(=O)c4cc5cc(C(F)(F)P(=O)(O)O)ccc5s4)C(=O)N32)s1 (stereo partly drawn) [Cpd. No. 15, ((2-(((5S,8S,10aR)-8-(((S)-4-amino-1-(5-(tert-butyl)thiazol-2-yl)-4-oxobutyl)carbamoyl)-3-(8-(2-(2,6-dioxopiperidin-3-yl)-1-oxoisoindolin-4-yl)oct-7-ynoyl)-6-oxodecahydropyrrolo[1,2-a][1,5]diazocin-5-yl)carbamoyl)benzo[b]thiophen-5-yl)difluoromethyl)phosphonic acid] | 500 | 
NC(=O)CC[C@H](NC(=O)[C@@H]1CC[C@@H]2CCN(C(=O)CCCCCC#Cc3cccc4c3CN(C3CCC(=O)NC3=O)C4=O)C[C@H](NC(=O)c3cc4cc(C(F)(F)P(=O)(O)O)ccc4s3)C(=O)N21)c1nc(Cc2ccccc2)cs1 (stereo partly drawn) [Cpd. No. 3, ((2-(((5S,8S,10aR)-8-(((S)-4-amino-1-(4-benzylthiazol-2-yl)-4-oxobutyl)carbamoyl)-3-(8-(2-(2,6-dioxopiperidin-3-yl)-1-oxoisoindolin-4-yl)oct-7-ynoyl)-6-oxodecahydropyrrolo[1,2-a][1,5]diazocin-5-yl)carbamoyl)benzo[b]thiophen-5-yl)difluoromethyl)phosphonic acid] | 100 | 170
NC(=O)CC[C@H](NC(=O)[C@@H]1CC[C@@H]2CCN(C(=O)CCCCCC#Cc3cccc4c3CN(C3CCC(=O)NC3=O)C4=O)C[C@H](NC(=O)c3cc4cc(C(F)(F)P(=O)(O)O)ccc4s3)C(=O)N21)c1ncc(-c2ccc(F)cc2)s1 (stereo partly drawn) [Cpd. No. 9, ((2-(((5S,8S,10aR)-8-(((S)-4-amino-1-(5-(4-fluorophenyl)thiazol-2-yl)-4-oxobutyl)carbamoyl)-3-(8-(2-(2,6-dioxopiperidin-3-yl)-1-oxoisoindolin-4-yl)oct-7-ynoyl)-6-oxodecahydropyrrolo[1,2-a][1,5]diazocin-5-yl)carbamoyl)benzo[b]thiophen-5-yl)difluoromethyl)phosphonic acid] | 50 | 60
NC(=O)CC[C@H](NC(=O)[C@@H]1CC[C@@H]2CCN(C(=O)CCCCCC#Cc3cccc4c3CN(C3CCC(=O)NC3=O)C4=O)C[C@H](NC(=O)c3cc4cc(C(F)(F)P(=O)(O)O)ccc4s3)C(=O)N21)c1ncc(-c2ccc(Cl)cc2)s1 (stereo partly drawn) [Cpd. No. 7, ((2-(((5S,8S,10aR)-8-(((S)-4-amino-1-(5-(4-chlorophenyl)thiazol-2-yl)-4-oxobutyl)carbamoyl)-3-(8-(2-(2,6-dioxopiperidin-3-yl)-1-oxoisoindolin-4-yl)oct-7-ynoyl)-6-oxodecahydropyrrolo[1,2-a][1,5]diazocin-5-yl)carbamoyl)benzo[b]thiophen-5-yl)difluoromethyl)phosphonic acid] | 50 | 
NC(=O)CC[C@H](NC(=O)[C@@H]1CC[C@@H]2CCN(C(=O)CCCCCC#Cc3cccc4c3CN(C3CCC(=O)NC3=O)C4=O)C[C@H](NC(=O)c3cc4cc(C(F)(F)P(=O)(O)O)ccc4s3)C(=O)N21)c1nc(-c2ccc(F)c(F)c2)cs1 (stereo partly drawn) [Cpd. No. 11, ((2-(((5S,8S,10aR)-8-(((S)-4-amino-1-(4-(3,4-difluorophenyl)thiazol-2-yl)-4-oxobutyl)carbamoyl)-3-(8-(2-(2,6-dioxopiperidin-3-yl)-1-oxoisoindolin-4-yl)oct-7-ynoyl)-6-oxodecahydropyrrolo[1,2-a][1,5]diazocin-5-yl)carbamoyl)benzo[b]thiophen-5-yl)difluoromethyl)phosphonic acid] | 100 | 
NC(=O)CC[C@H](NC(=O)[C@@H]1CC[C@@H]2CCN(C(=O)CCCCCC#Cc3cccc4c3CN(C3CCC(=O)NC3=O)C4=O)C[C@H](NC(=O)c3cc4cc(C(F)(F)P(=O)(O)O)ccc4s3)C(=O)N21)c1nc2c(s1)Cc1ccccc1-2 (stereo partly drawn) [Cpd. No. 6, ((2-(((5S,8S,10aR)-8-(((S)-4-amino-1-(8H-indeno[1,2-d]thiazol-2-yl)-4-oxobutyl)carbamoyl)-3-(8-(2-(2,6-dioxopiperidin-3-yl)-1-oxoisoindolin-4-yl)oct-7-ynoyl)-6-oxodecahydropyrrolo[1,2-a][1,5]diazocin-5-yl)carbamoyl)benzo[b]thiophen-5-yl)difluoromethyl)phosphonic acid] | 100 | 64
NC(=O)CC[C@H](NC(=O)[C@@H]1CC[C@@H]2CCN(C(=O)CCCCCC#Cc3cccc4c3CN(C3CCC(=O)NC3=O)C4=O)C[C@H](NC(=O)c3cc4cc(C(F)(F)P(=O)(O)O)ccc4s3)C(=O)N21)c1nc(-c2ccccc2)cs1 (stereo partly drawn) [Cpd. No. 4, ((2-(((5S,8S,10aR)-8-(((S)-4-amino-4-oxo-1-(4-phenylthiazol-2-yl)butyl)carbamoyl)-3-(8-(2-(2,6-dioxopiperidin-3-yl)-1-oxoisoindolin-4-yl)oct-7-ynoyl)-6-oxodecahydropyrrolo[1,2-a][1,5]diazocin-5-yl)carbamoyl)benzo[b]thiophen-5-yl)difluoromethyl)phosphonic acid] | 200 | 140
NC(=O)CC[C@H](NC(=O)[C@@H]1CC[C@@H]2CCN(C(=O)CCCCCC#Cc3cccc4c3CN(C3CCC(=O)NC3=O)C4=O)C[C@H](NC(=O)c3cc4cc(C(F)(F)P(=O)(O)O)ccc4s3)C(=O)N21)c1nc(-c2ccc(F)c(Cl)c2)cs1 (stereo partly drawn) [Cpd. No. 14, ((2-(((5S,8S,10aR)-8-(((S)-4-amino-1-(4-(3-chloro-4-fluorophenyl)thiazol-2-yl)-4-oxobutyl)carbamoyl)-3-(8-(2-(2,6-dioxopiperidin-3-yl)-1-oxoisoindolin-4-yl)oct-7-ynoyl)-6-oxodecahydropyrrolo[1,2-a][1,5]diazocin-5-yl)carbamoyl)benzo[b]thiophen-5-yl)difluoromethyl)phosphonic acid] | 50 | 37
NC(=O)CC[C@H](NC(=O)[C@@H]1CC[C@@H]2CCN(C(=O)CCCCCC#Cc3cccc4c3CN(C3CCC(=O)NC3=O)C4=O)C[C@H](NC(=O)c3cc4cc(C(F)(F)P(=O)(O)O)ccc4s3)C(=O)N21)c1nc(-c2ccc(F)cc2)cs1 (stereo partly drawn) [Cpd. No. 12, ((2-(((5S,8S,10aR)-8-(((S)-4-amino-1-(4-(4-fluorophenyl)thiazol-2-yl)-4-oxobutyl)carbamoyl)-3-(8-(2-(2,6-dioxopiperidin-3-yl)-1-oxoisoindolin-4-yl)oct-7-ynoyl)-6-oxodecahydropyrrolo[1,2-a][1,5]diazocin-5-yl)carbamoyl)benzo[b]thiophen-5-yl)difluoromethyl)phosphonic acid] | 100 | 
CC(C)(C)c1ccc(-c2cnc([C@H](CCC(N)=O)NC(=O)[C@@H]3CC[C@@H]4CCN(C(=O)CCCCCC#Cc5cccc6c5CN(C5CCC(=O)NC5=O)C6=O)C[C@H](NC(=O)c5cc6cc(C(F)(F)P(=O)(O)O)ccc6s5)C(=O)N43)s2)cc1 (stereo partly drawn) [Cpd. No. 17, ((2-(((5S,8S,10aR)-8-(((S)-4-amino-1-(5-(4-(tert-butyl)phenyl)thiazol-2-yl)-4-oxobutyl)carbamoyl)-3-(8-(2-(2,6-dioxopiperidin-3-yl)-1-oxoisoindolin-4-yl)oct-7-ynoyl)-6-oxodecahydropyrrolo[1,2-a][1,5]diazocin-5-yl)carbamoyl)benzo[b]thiophen-5-yl)difluoromethyl)phosphonic acid] | 200 | 
